{"source": "patent US6608107B2", "about": "“Methods and compositions to treat conditions associated with neovascularization” (Wackvom Limited, priority 2000, dated 2003)", "key": {"endothelial cells": {"test_system": "endothelial cells", "experiment": "Endothelial Cell Assay (inhibition of endothelial cell growth)", "type": "cell-based", "conditions": "for Endothelial cell assay reading, samples 1-5: raw reading per sample", "method": "The assays were carried out according to the procedures of Connally, et al. (1986) Anal. Biochem. 152:136-4 with modifications (Liang and Wong (1999) ANGIOGENESIS: FROM THE MOLECULAR TO INTEGRATIVE PHARMACOLOGY edited by Maradoudakis, Kluwer Academic/Plenum. Publishers, New York)."}, "[1]": {"experiment": "Organ distribution of gossypol enantiomers", "conditions": "in vivo"}}, "note": "Where “and” joins values, the source holds several entries; their conditions need not be identical. Identical values can stand only once."}
{"smiles": "Cc1cc2c(C(C)C)c(O)c(O)c(C=O)c2c(O)c1-c1c(C)cc2c(C(C)C)c(O)c(O)c(C=O)c2c1O", "note": "[Gossypol]", "values": [{"measurement": "Endothelial cell assay reading, samples 1-5", "setting": "endothelial cells; Concentration of Gossypol: 25 mM", "value": "0.0112 and 0.0078 and 0.0057 and 0.0068 and 0.0076"}, {"measurement": "inhibition at 25000 µM", "setting": "endothelial cells; Endothelial cell, Concentration of Gossypol: 25 mM", "value": 97.6, "unit": "%"}]}
{"smiles": "Cc1cc2c(C(C)C)c(O)c(O)c(C=O)c2c(O)c1-c1c(C)cc2c(C(C)C)c(O)c(O)c(C=O)c2c1O", "note": "[(−) gossypol]", "values": [{"measurement": "organs in which the enantiomer concentrates", "setting": "[1]", "value": "concentrates in the major organs such as the heart, spleen and muscles"}]}
{"smiles": "Cc1cc2c(C(C)C)c(O)c(O)c(C=O)c2c(O)c1-c1c(C)cc2c(C(C)C)c(O)c(O)c(C=O)c2c1O", "note": "[(+) gossypol]", "values": [{"measurement": "organs in which the enantiomer concentrates", "setting": "[1]", "value": "concentrates in the kidneys"}]}
{"smiles": "Cc1cc2c(C(C)C)c(O)c(O)c(C=O)c2c(O)c1-c1c(C)cc2c(C(C)C)c(O)c(O)c(C=O)c2c1O", "note": "[Gossypol Acetate, gossypol acetate]", "values": [{"measurement": "Inhibition", "setting": "endothelial cells; Gossypol Acetate, first column (concentration not given)", "value": 46.2, "unit": "%"}, {"measurement": "Inhibition", "setting": "endothelial cells; Gossypol Acetate, second column (concentration not given)", "value": 21.3, "unit": "%"}, {"measurement": "Endothelial cell assay reading, samples 1-5", "setting": "endothelial cells; Gossypol Acetate", "value": "0.3289 and 0.3165 and 0.3065 and 0.3035 and 0.3269"}]}
